Experimental data reported in paper PMC11201828, “A Novel Dimeric Short Peptide Derived from α-Defensin-Related Rattusin with Improved Antimicrobial and DNA-Binding Activities” (Biomolecules, 2024).
Values after ≈ are worked out from the molar mass of the structure shown. Where two headings read alike, the source gives them in different places. Positions of bridges follow the written chain, without caps; N, C: chain ends. Residues, ends and D or L forms follow the SMILES beside them. Chains are numbered I, II in the order given. No end group written: not given here.

Columns and labels:
Escherichia coli = type: cell-based; conditions: 24 h
Protocol: (§1) The minimal inhibitory concentrations (MICs) of the peptides were determined following the broth microdilution method recommended by the Clinical and Laboratory Standards Institute (CLSI). Briefly, bacteria in their mid-logarithmic growth phase were diluted in Mueller–Hinton broth (MHB) (Difco, Franklin Lakes, NJ, USA) and aliquoted into a 96-well microtiter plate at a density of 4 × 10^6 CFU/well. The assay included both Gram-negative bacteria (Escherichia coli, Salmonella typhimurium, and Pseudomonas aeruginosa) and Gram-positive bacteria (Bacillus subtilis, Staphylococcus aureus, and Staphylococcus epidermidis), as well as methicillin-resistant Staphylococcus aureus strains (MRSA: CCARM 3089, CCARM 3090, CCARM 3095). The samples were subjected to a two-fold serial dilution before being added to the wells, and the plate was incubated at 37 °C for 24 h. The MIC was defined as the lowest peptide concentration that prevented visible bacterial growth. All experiments were conducted in triplicate and included appropriate growth and sterility controls.

Salmonella typhimurium = type: cell-based; conditions: 24 h
Protocol: as §1

[1] = test system: Staphylococcus epidermidis; type: cell-based; conditions: 24 h
Protocol: as §1

bacterial strains = type: cell-based; conditions: strain not given; see Tables 1 and 2
Protocol: as §1

Pseudomonas aeruginosa = type: cell-based; conditions: 24 h
Protocol: as §1

Bacillus subtilis = type: cell-based; conditions: 24 h
Protocol: as §1

Staphylococcus aureus = type: cell-based; conditions: 24 h
Protocol: as §1

MRSA CCARM 3090 = type: cell-based, methicillin-resistant Staphylococcus aureus; conditions: CCARM 3090, 24 h
Protocol: as §1

MRSA CCARM 3089 = type: cell-based, methicillin-resistant Staphylococcus aureus; conditions: CCARM 3089, 24 h
Protocol: as §1

MRSA CCARM 3095 = type: cell-based, methicillin-resistant Staphylococcus aureus; conditions: CCARM 3095, 24 h
Protocol: as §1

[2] = test system: S. aureus cytoplasmic membrane; experiment: Membrane depolarization assay, DiSC3-(5) dye; type: cell-based, Staphylococcus aureus; conditions: intact S. aureus; 32 µM F2, 4 µM melittin, 16 µM buforin-2; peptide added after 300 s; Figure 2
Protocol: The cytoplasmic membrane depolarization activity of the peptides was assessed using the membrane-potential-sensitive dye DiSC3-(5), following methodologies previously described in the literature. Staphylococcus aureus was cultured in Luria–Bertani (LB) broth at 37 °C until reaching an optical density (O.D.) at 600 nm of 0.3–0.4, indicative of mid-logarithmic phase growth. The cells were then washed with a buffer containing 20 mM glucose and 5 mM HEPES, and the cell suspension was diluted to an O.D. 600 of 0.05 in the same buffer. Potassium chloride (KCl) was added to achieve a final concentration of 100 mM to equilibrate potassium ion levels. The concentrations used for each peptide in our membrane depolarization assays were based on their respective MICs: 32 µM for F2, 4 µM for Melittin, and 16 µM for Buferin-2.
Fluorescence was monitored using an F-4500 FL fluorescence spectrophotometer (Shimadzu, Kyoto, Japan) with excitation and emission wavelengths set at 622 nm and 670 nm, respectively. Melittin, known for its membrane-disrupting properties, served as a positive control, while buforin-2, which translocates across membranes without causing depolarization, acted as a negative control. Both melittin and buforin-2 were tested at concentrations twice their minimal inhibitory concentration (MIC) levels.

E. coli ML-35 = experiment: ONPG hydrolysis assay (inner membrane permeability); type: cell-based, Escherichia coli; conditions: 32 µM F2, 4 µM melittin, 16 µM buforin-2, Figure 4
Protocol: The internal membrane permeability was assessed using the ONPG hydrolysis assay, as described previously. E. coli ML-35p, which constitutively expresses cytoplasmic β-galactosidase and periplasmic β-lactamase, is resistant to ampicillin and deficient in lactose permease. E. coli ML-35 was incubated in LB broth containing ampicillin at 37 °C until the optical density (O.D.) at 600 nm reached 1.0. The cells were then washed with a buffer consisting of 97% 1× PBS and 3% LB and diluted to an O.D. 600 of 0.4 in the same buffer. A mixture of 50 μL of serially diluted peptide and 20 μL of dye (ONPG, final concentration 3 mM) was added to 100 μL of the bacterial suspension in a sterilized 96-well plate. Melittin served as a positive control, while buforin-2 was used as a negative control. The hydrolysis of ONPG was measured using a PHOMO Elisa reader (Autobio, Zhengzhou, China) at 405 nm for each time period.

S. aureus cell membranes = experiment: SYTOX Green uptake assay; type: cell-based, Staphylococcus aureus; conditions: 32 µM F2, 4 µM melittin, 16 µM buforin-2, Figure 3
Protocol: The membrane permeabilization activity of the peptides was determined using the SYTOX Green uptake assay, as described previously. S. aureus was cultured in LB broth at 37 °C until it reached an optical density (O.D.) at 600 nm of 0.4, indicative of the mid-logarithmic phase. The cells were then washed and diluted to an O.D. 600 of 0.05 using 1× PBS buffer. The dye (SYTOX Green nucleic acid stain) was added to the bacterial suspension at a concentration of […], and the mixture was incubated at 4 °C for 18 h with agitation in the dark. The SYTOX Green-treated bacteria were placed in a quartz cell, where they were simultaneously exposed to the positive control melittin (2× MIC), the negative control buforin-2 (2× MIC), and the F2 dimer (2× MIC). An F-4500 FL fluorescence spectrophotometer (Shimadzu, Kyoto, Japan) was used to monitor fluorescence (excitation 485 nm, emission 520 nm).

plasmid DNA (pHIS2) = experiment: DNA-binding gel retardation assay; conditions: plasmid pHIS2 145 μg/mL, 37 °C, 1 h, 1% agarose gel; Figure 5
Protocol: We evaluated the DNA-binding ability of F2 and F2 (C4S) monomeric peptides using gel retardation experiments. The concentration of plasmid DNA (pHIS2) was fixed at 145 μg/mL. The peptide was serially diluted in a binding buffer consisting of 10 mM Tris-HCl (pH 8.0), 5% glucose, 50 μg/mL BSA, 1 mM EDTA, and 20 mM KCl. This solution was then mixed with the DNA and incubated at 37 °C for 1 h. After incubation, the DNA–peptide mixture was stained with DNA gel loading dye. The samples were analyzed using 1% agarose gel electrophoresis in 0.5× TAE buffer. Plasmid bands were detected with a UV illuminator (Bio-Rad, Hercules, CA, USA).

Compound | MIC (Escherichia coli) [µg/mL] | MIC (bacterial strains) [µg/mL] | MIC (Staphylococcus aureus) [µg/mL] | MIC (MRSA CCARM 3090) [µg/mL] | MIC (MRSA CCARM 3089) [µg/mL] | MIC (MRSA CCARM 3095) [µg/mL] | further results
CC(C)[C@@H]1NC(=O)[C@H](CCCNC(=N)N)NC(=O)[C@H](CCCNC(=N)N)NC(=O)[C@H]([C@@H](C)O)NC(=O)[C@H](CC(N)=O)NC(=O)[C@H](CCCNC(=N)N)NC(=O)[C@@H](NC(=O)[C@@H](NC(=O)[C@H](CCCNC(=N)N)NC(=O)[C@@H](N)CCCNC(=N)N)C(C)C)CSSC[C@@H](C(=O)N[C@@H](CCCNC(=N)N)C(=O)N[C@@H](CC(N)=O)C(=O)N[C@H](C(N)=O)[C@@H](C)O)NC1=O [F2-AH] (H-RRVCRNTRRVCRNT-NH2; disulfide 4-11; N-terminus assumed) | 15 (≈ 8.39 µM) | 15 (≈ 8.39 µM) | 29 (≈ 16.2 µM) | 29 (≈ 16.2 µM) | 29 (≈ 16.2 µM) | 58 (≈ 32.5 µM) | MIC (Salmonella typhimurium; murium): 15 µg/mL (≈ 8.39 µM); MIC [1]: 15 µg/mL (≈ 8.39 µM); MIC (Pseudomonas aeruginosa): 15 µg/mL (≈ 8.39 µM); MIC (Bacillus subtilis): 29 µg/mL (≈ 16.2 µM)
CC(C)[C@H](NC(=O)[C@@H]1CSSC[C@H](NC(=O)[C@@H](NC(=O)[C@H](CCCNC(=N)N)NC(=O)[C@@H](N)CCCNC(=N)N)C(C)C)C(=O)N[C@@H](CCCNC(=N)N)C(=O)N[C@@H](CC(N)=O)C(=O)N[C@@H]([C@@H](C)O)C(=O)N[C@@H]([C@@H](C)O)C(=O)N[C@@H](CC(N)=O)C(=O)N[C@@H](CCCNC(=N)N)C(=O)N1)C(=O)N[C@@H](CCCNC(=N)N)C(=O)N[C@@H](CCCNC(=N)N)C(N)=O [F2-PH] (H-RRVCRNTTNRCVRR-NH2; disulfide 4-11; N-terminus assumed) | 15 (≈ 8.39 µM) | 15 (≈ 8.39 µM) | 29 (≈ 16.2 µM) | 58 (≈ 32.5 µM) | 29 (≈ 16.2 µM) | 29 (≈ 16.2 µM) | MIC (Salmonella typhimurium; murium): 15 µg/mL (≈ 8.39 µM); MIC [1]: 15 µg/mL (≈ 8.39 µM); MIC (Pseudomonas aeruginosa): 15 µg/mL (≈ 8.39 µM); MIC (Bacillus subtilis): 29 µg/mL (≈ 16.2 µM)
CC[C@H](C)[C@H](NC(=O)[C@@H]1CSSC[C@H](NC(=O)[C@H](CCC(N)=O)NC(=O)[C@@H](N)CC(C)C)C(=O)N[C@@H](CO)C(=O)N[C@H]2CSSC[C@H](NC(=O)[C@H]([C@@H](C)O)NC(=O)[C@H](CC(N)=O)NC(=O)[C@H](CCCNC(=N)N)NC(=O)[C@@H]3CSSC[C@H](NC(=O)[C@H](C(C)C)NC(=O)[C@H](CCCNC(=N)N)NC(=O)[C@H](CCCNC(=N)N)NC2=O)C(=O)N[C@@H](CCCNC(=N)N)C(=O)N[C@@H](CC(N)=O)C(=O)N[C@@H]([C@@H](C)O)C(=O)N[C@H]2CSSC[C@H](NC(=O)[C@H](CO)NC(=O)[C@@H](NC(=O)[C@H](CCC(N)=O)NC(=O)[C@@H](N)CC(C)C)CSSC[C@@H](C(=O)N[C@H](C(=O)N[C@@H](CCCNC(=N)N)C(N)=O)[C@@H](C)CC)NC(=O)[C@H](CO)NC2=O)C(=O)N[C@@H](CCCNC(=N)N)C(=O)N[C@@H](CCCNC(=N)N)C(=O)N[C@@H](C(C)C)C(=O)N3)C(=O)N[C@@H](CO)C(=O)N1)C(=O)N[C@@H](CCCNC(=N)N)C(N)=O [F4] (I: H-LQCSCRRVCRNTCSCIR-NH2 / II: H-LQCSCRRVCRNTCSCIR-NH2; disulfide I:3-II:15, I:5-II:13, I:9-II:9, I:13-II:5, I:15-II:3 (inferred); N-terminus assumed) | 32 (≈ 8.02 µM) | – | 64 (≈ 16 µM) | – | – | – | –
CC[C@H](C)[C@H](NC(=O)CN)C(=O)NCC(=O)N[C@@H](C)C(=O)N[C@H](C(=O)N[C@@H](CC(C)C)C(=O)N[C@@H](CCCCN)C(=O)N[C@H](C(=O)N[C@@H](CC(C)C)C(=O)N[C@H](C(=O)N[C@H](C(=O)NCC(=O)N[C@@H](CC(C)C)C(=O)N1CCC[C@H]1C(=O)N[C@@H](C)C(=O)N[C@@H](CC(C)C)C(=O)N[C@H](C(=O)N[C@@H](CO)C(=O)N[C@@H](Cc1c[nH]c2ccccc12)C(=O)N[C@H](C(=O)N[C@@H](CCCCN)C(=O)N[C@@H](CCCNC(=N)N)C(=O)N[C@@H](CCCCN)C(=O)N[C@@H](CCCNC(=N)N)C(=O)N[C@@H](CCC(N)=O)C(=O)N[C@@H](CCC(N)=O)C(N)=O)[C@@H](C)CC)[C@@H](C)CC)[C@@H](C)O)[C@@H](C)O)C(C)C)C(C)C [Melittin] | – | – | – | – | – | – | cytoplasmic membrane depolarization (DiSC3-(5) fluorescence) [2]: complete depolarization; ONPG hydrolysis (absorbance at 405 nm) (E. coli ML-35): change in absorbance; SYTOX Green uptake (fluorescence intensity) (S. aureus cell membranes): significant increase in fluorescence intensity
Buforin-2 | – | – | – | – | – | – | cytoplasmic membrane depolarization (DiSC3-(5) fluorescence) [2]: failed to induce any change in membrane potential; peptide concentration giving DNA band retardation (plasmid DNA (pHIS2)): 2 µM; ONPG hydrolysis (absorbance at 405 nm) (E. coli ML-35): did not alter the absorbance; SYTOX Green uptake (fluorescence intensity) (S. aureus cell membranes): did not show a similar increase in fluorescence intensity
IRLSRSTYAS-NH2 [F3] | >590 | > 590 | >590 | – | – | – | –
LRVRRTLQ-NH2 [F1] | 67 | – | >500 | – | – | – | –
RRVSRNT-NH2 [F2 (C15S)] | – | > 227 | – | >114 | >114 | >114 | peptide concentration giving DNA band retardation (plasmid DNA (pHIS2)): > 16 µM; MIC (Escherichia coli; Escherichia coli, broth microdilution, MHB, 4 × 10^6 CFU/well, 37 °C, triplicate, no deviations): >227 µg/mL; MIC (Salmonella typhimurium; Salmonella typhimurium, broth microdilution, MHB, 37 °C, triplicate): >227 µg/mL; MIC ([1]; Staphylococcus epidermidis, broth microdilution, MHB, 37 °C, triplicate): >227 µg/mL; MIC (Pseudomonas aeruginosa; Pseudomonas aeruginosa, broth microdilution, MHB, 37 °C, triplicate): >227 µg/mL; MIC (Bacillus subtilis; Bacillus subtilis, broth microdilution, MHB, 37 °C, triplicate): >227 µg/mL; MIC (Staphylococcus aureus; Staphylococcus aureus, broth microdilution, MHB, 37 °C, triplicate): >227 µg/mL
